Laboratory results reported in patent US11033577B2, “Polymer conjugate of hexa-coordinated platinum complex” (priority 2015, dated 2021).

Assays:
Format in all cases: in vivo, BALB/cA-nu/nu mouse
Settings in all cases: caudal vein
[1] = test system: Human stomach cancer 4-1ST; test: Antitumor Test 3, human stomach cancer 4-1ST transplanted mouse
Excerpt: (§1) Human stomach cancer 4-1ST was subcultured subcutaneously in a BALB/cA-nu/nu mouse (hereinafter, nude mouse). Human stomach cancer 4-1ST was obtained from the Central Institute for Experimental Animals.
(§2) Human stomach cancer 4-1ST was collected subcutaneously from a nude mouse and was cut into blocks each measuring about 3 mm on each side. The tumor blocks thus obtained were transplanted subcutaneously on the dorsal side of nude mice using a trocar. On the 20th day after transplantation, where the average tumor volume had reached about 100 to 200 mm^3, various drugs were administered through the caudal vein. The use and dose (in terms of drug) of the various administered drugs are as follows. In regard to the Example 7 compound, the compound was dissolved in a 5% glucose injectable solution, and the solution was administered once at a dose of 15 mg/kg or 7.5 mg/kg. In regard to the Example 16 compound, the compound was dissolved in a 5% glucose injectable solution, and the solution was administered once at a dose of 30 mg/kg or 15 mg/kg. As a control drug, l-OHP was administered once at a dose of 18 mg/kg or 9 mg/kg, and cisplatin was administered once at a dose of 10 mg/kg. Regarding the amounts of administration of l-OHP and cisplatin and the high amounts of administration of the various Example compounds, the maximum tolerable doses (MTD doses) were employed for all of the compounds. After the administration, the major axis (L) and the minor axis (W) of the tumor were measured over time using calipers, and the tumor volume (L×W×W×0.5) was calculated. The test was performed by employing four animals per group for all of a non-administered group as well as various drug-administered groups. During the period from the initiation of administration to the 21st day after administration, the relative tumor volume (T/C (%)) of each drug-administered group based on the relative tumor volume of a non-drug-administered group as 100 was calculated by the following formula as an index for the antitumor effect. T/C(%)=Relative tumor volume of administered group/relative tumor volume of non-administered group×100 Formula: […]

[2] = test system: Human stomach cancer 4-1ST; test: Antitumor Test 1, human stomach cancer 4-1ST transplanted mouse
Excerpt: as §1
Human stomach cancer 4-1ST was collected subcutaneously from a nude mouse and was finely cut into blocks each measuring about 3 mm on each side. The tumor blocks thus obtained were subcutaneously transplanted into the dorsal side of nude mice using a trocar. On the 15th day after transplantation, where the average tumor volume had reached about 100 to 200 mm^3, various drugs were administered through the caudal vein. The use and dose (in terms of drug) of the various administered drugs are as follows. In regard to the Example 1 compound, the compound was dissolved in a 5% glucose injectable solution, and the solution was administered once at a dose of 25 mg/kg or 12.5 mg/kg. In regard to the Example 2 compound, the compound was dissolved in a 5% glucose injectable solution, and the solution was administered once at a dose of 25 mg/kg or 12.5 mg/kg. In regard to the Example 3 compound, the compound was dissolved in a 5% glucose injectable solution, and the solution was administered once at a dose of 20 mg/kg or 10 mg/kg. In regard to the Example 4 compound, the compound was dissolved in a 5% glucose injectable solution, and the solution was administered once at a dose of 20 mg/kg or 10 mg/kg. In regard to the Example 5 compound, the compound was dissolved in a 5% glucose injectable solution, and the solution was administered once at a dose of 20 mg/kg or 10 mg/kg. As a control drug, l-OHP was administered once at a dose of 20 mg/kg, and cisplatin was administered once at a dose of 10 mg/kg. Regarding the amounts of administration of l-OHP and cisplatin and the high amounts of administration of the various Example compounds, the maximum tolerable doses (MTD doses) were employed for all of the compounds. After the administration, the major axis (L) and the minor axis (W) of the tumor were measured over time using calipers, and the tumor volume (L×W×W×0.5) was calculated. The test was performed by employing four animals per group for all of a non-administered group as well as various drug-administered groups. During the period from the initiation of administration to the 21st day after administration, the relative tumor volume (T/C (%)) of each drug-administered group based on the relative tumor volume of a non-drug-administered group as 100 was calculated by the following formula as an index for the antitumor effect. T/C(%)=Relative tumor volume of administered group/relative tumor volume of non-administered group×100 Formula: […]

[3] = test system: Human stomach cancer 4-1ST; test: Antitumor Test 2, human stomach cancer 4-1ST transplanted mouse
Excerpt: as §1
as §2, with “the 17th” for “the 20th”, “Example 11” for “Example 7”, “Example 12” for “Example 16”, “18” for “18 mg/kg or 9”

N.N.[Cl][Pt][Cl] [Cisplatin, cisplatin]
T/C (%) in various numbers of days after administration ([1]; 10 mg/kg once, day 0): 100%
T/C (%) in various numbers of days after administration ([1]; 10 mg/kg once, day 4): 47%
T/C (%) in various numbers of days after administration ([1]; 10 mg/kg once, day 7): 22%
T/C (%) in various numbers of days after administration ([1]; 10 mg/kg once, day 11): 17%
T/C (%) in various numbers of days after administration ([1]; 10 mg/kg once, day 14): 16%
T/C (%) in various numbers of days after administration ([1]; 10 mg/kg once, day 18): 20%
T/C (%) in various numbers of days after administration ([1]; 10 mg/kg once, day 21): 19%
T/C (%) in various numbers of days after administration ([2]; 10 mg/kg once, day 0): 100%
T/C (%) in various numbers of days after administration ([2]; 10 mg/kg once, day 3): 68%
T/C (%) in various numbers of days after administration ([2]; 10 mg/kg once, day 5): 50%
T/C (%) in various numbers of days after administration ([2]; 10 mg/kg once, day 7): 33%
T/C (%) in various numbers of days after administration ([2]; 10 mg/kg once, day 10): 33%
T/C (%) in various numbers of days after administration ([2]; 10 mg/kg once, day 14): 29%
T/C (%) in various numbers of days after administration ([2]; 10 mg/kg once, day 17): 26%
T/C (%) in various numbers of days after administration ([2]; 10 mg/kg once, day 21): 22%
T/C (%) in various numbers of days after administration ([3]; 10 mg/kg once, day 0): 100%
T/C (%) in various numbers of days after administration ([3]; 10 mg/kg once, day 4): 77%
T/C (%) in various numbers of days after administration ([3]; 10 mg/kg once, day 7): 43%
T/C (%) in various numbers of days after administration ([3]; 10 mg/kg once, day 11): 32%
T/C (%) in various numbers of days after administration ([3]; 10 mg/kg once, day 14): 36%
T/C (%) in various numbers of days after administration ([3]; 10 mg/kg once, day 18): 37%
T/C (%) in various numbers of days after administration ([3]; 10 mg/kg once, day 21): 42%

O=C1[O][Pt]2([NH][C@@H]3CCCC[C@H]3[NH]2)[O]C1=O [l-OHP, oxaliplatin]
T/C (%) in various numbers of days after administration ([1]; 9 mg/kg once, day 0): 100%
T/C (%) in various numbers of days after administration ([1]; 9 mg/kg once, day 4): 81%
T/C (%) in various numbers of days after administration ([1]; 9 mg/kg once, day 7): 74%
T/C (%) in various numbers of days after administration ([1]; 9 mg/kg once, day 11): 75%
T/C (%) in various numbers of days after administration ([1]; 9 mg/kg once, day 14): 79%
T/C (%) in various numbers of days after administration ([1]; 9 mg/kg once, day 18): 77%
T/C (%) in various numbers of days after administration ([1]; 9 mg/kg once, day 21): 87%
T/C (%) in various numbers of days after administration ([1]; 18 mg/kg once, day 0): 100%
T/C (%) in various numbers of days after administration ([1]; 18 mg/kg once, day 4): 60%
T/C (%) in various numbers of days after administration ([1]; 18 mg/kg once, day 7): 37%
T/C (%) in various numbers of days after administration ([1]; 18 mg/kg once, day 11): 36%
T/C (%) in various numbers of days after administration ([1]; 18 mg/kg once, day 14): 47%
T/C (%) in various numbers of days after administration ([1]; 18 mg/kg once, day 18): 50%
T/C (%) in various numbers of days after administration ([1]; 18 mg/kg once, day 21): 52%
T/C (%) in various numbers of days after administration ([2]; 20 mg/kg once, day 0): 100%
T/C (%) in various numbers of days after administration ([2]; 20 mg/kg once, day 3): 72%
T/C (%) in various numbers of days after administration ([2]; 20 mg/kg once, day 5): 57%
T/C (%) in various numbers of days after administration ([2]; 20 mg/kg once, day 7): 49%
T/C (%) in various numbers of days after administration ([2]; 20 mg/kg once, day 10): 49%
T/C (%) in various numbers of days after administration ([2]; 20 mg/kg once, day 14): 45%
T/C (%) in various numbers of days after administration ([2]; 20 mg/kg once, day 17): 46%
T/C (%) in various numbers of days after administration ([2]; 20 mg/kg once, day 21): 41%
T/C (%) in various numbers of days after administration ([3]; 18 mg/kg once, day 0): 100%
T/C (%) in various numbers of days after administration ([3]; 18 mg/kg once, day 4): 84%
T/C (%) in various numbers of days after administration ([3]; 18 mg/kg once, day 7): 52%
T/C (%) in various numbers of days after administration ([3]; 18 mg/kg once, day 11): 50%
T/C (%) in various numbers of days after administration ([3]; 18 mg/kg once, day 14): 50%
T/C (%) in various numbers of days after administration ([3]; 18 mg/kg once, day 18): 60%
T/C (%) in various numbers of days after administration ([3]; 18 mg/kg once, day 21): 57%
